Like-named read-outs stand apart in the source and are kept apart here.
What was measured:
Type in all cases: cell-based
hGIPR = target: T1, hGIPR (Homo sapiens, UniProt P48546); assay: Functional cAMP formation (HTRF) in HEK-293 clonal cells expressing hGIPR, 0.1% bovine casein, without or with 1.0% human serum albumin; settings: for EC50: geometric mean
T1 construct: expressed in transfected cells
T1 sequence (P48546 22-466): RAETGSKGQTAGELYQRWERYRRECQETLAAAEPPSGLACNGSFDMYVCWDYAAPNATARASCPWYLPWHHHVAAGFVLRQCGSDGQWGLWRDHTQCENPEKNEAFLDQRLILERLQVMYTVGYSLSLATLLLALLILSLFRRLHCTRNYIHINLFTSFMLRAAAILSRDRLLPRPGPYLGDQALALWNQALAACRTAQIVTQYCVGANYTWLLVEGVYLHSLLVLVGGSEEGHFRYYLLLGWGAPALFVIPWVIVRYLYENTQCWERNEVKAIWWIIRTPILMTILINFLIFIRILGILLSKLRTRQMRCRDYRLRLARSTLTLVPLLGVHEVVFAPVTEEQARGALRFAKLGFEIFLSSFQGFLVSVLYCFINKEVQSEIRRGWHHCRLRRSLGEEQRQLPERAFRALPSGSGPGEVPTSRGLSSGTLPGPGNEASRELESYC
Outline: (§1)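 Cells were stimulated with peptide for 30 min at 37° C, then lysed in buffer carrying cAMP-d2 and anti-cAMP Eu3+-cryptate for a competitive HTRF read after at least 60 min at room temperature. The 665/620 nm ratio was converted to nM cAMP against a standard curve.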

hGCGR = target: T2, hGCGR (Homo sapiens, UniProt P47871); assay: Functional cAMP formation (HTRF) in HEK-293 clonal cells expressing hGCGR, 0.1% bovine casein, without or with 1.0% human serum albumin; settings: geometric mean
T2 construct: expressed in transfected cells
Outline: as §1

hGLP-1R = hGLP-1R (Homo sapiens, UniProt P43220); assay: Functional cAMP formation (HTRF) in HEK-293 clonal cells expressing hGLP-1R, 0.1% bovine casein, without or with 1.0% human serum albumin; design: expressed in transfected cells; settings: for EC50: geometric mean
Outline: as §1

[1] = hGCGR EC50, nM (SEM, n), cAMP, incubated at 37° C., 0.1% bovine casein (no human serum albumin)
[2] = HEK293, read-out: hGLP-1R Emax, % ± SEM, percent of maximal response to GLP-1(7-36)NH2, 37° C., 0.1% bovine casein, arithmetic mean
[3] = HEK293, read-out: hGIPR Emax, % ± SEM, percent of maximal response to GIP(1-42)NH2, 37° C., 0.1% bovine casein, arithmetic mean
[4] = hGLP-1R EC50, nM (SEM, n), cAMP, incubated at 37° C., 0.1% bovine casein (no human serum albumin)
[5] = HEK293, percent of maximal response to GIP(1-42)NH2, 37° C., 0.1% bovine casein, arithmetic mean, read-out: hGIPR Emax, % ± SEM
[6] = cAMP, incubated at 37° C., 0.1% bovine casein (no human serum albumin), read-out: hGIPR EC50, nM (SEM, n)
[7] = cAMP, incubated at 37° C., 0.1% bovine casein (no human serum albumin), read-out: hGCGR EC50, nM (SEM, n)

T2 sequence (P47871 26-477): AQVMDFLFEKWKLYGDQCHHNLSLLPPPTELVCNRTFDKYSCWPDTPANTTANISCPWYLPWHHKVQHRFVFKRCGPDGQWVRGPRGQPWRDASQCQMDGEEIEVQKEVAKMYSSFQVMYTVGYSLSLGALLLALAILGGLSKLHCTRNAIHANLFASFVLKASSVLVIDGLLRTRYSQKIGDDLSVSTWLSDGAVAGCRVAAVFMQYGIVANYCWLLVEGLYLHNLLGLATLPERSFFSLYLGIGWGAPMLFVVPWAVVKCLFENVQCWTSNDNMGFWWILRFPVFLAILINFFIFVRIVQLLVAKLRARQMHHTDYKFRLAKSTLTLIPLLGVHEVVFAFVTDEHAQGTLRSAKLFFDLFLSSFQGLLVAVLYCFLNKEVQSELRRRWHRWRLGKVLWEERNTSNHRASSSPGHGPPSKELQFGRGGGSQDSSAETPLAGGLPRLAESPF
Chain of hGLP-1R (P43220 24-463): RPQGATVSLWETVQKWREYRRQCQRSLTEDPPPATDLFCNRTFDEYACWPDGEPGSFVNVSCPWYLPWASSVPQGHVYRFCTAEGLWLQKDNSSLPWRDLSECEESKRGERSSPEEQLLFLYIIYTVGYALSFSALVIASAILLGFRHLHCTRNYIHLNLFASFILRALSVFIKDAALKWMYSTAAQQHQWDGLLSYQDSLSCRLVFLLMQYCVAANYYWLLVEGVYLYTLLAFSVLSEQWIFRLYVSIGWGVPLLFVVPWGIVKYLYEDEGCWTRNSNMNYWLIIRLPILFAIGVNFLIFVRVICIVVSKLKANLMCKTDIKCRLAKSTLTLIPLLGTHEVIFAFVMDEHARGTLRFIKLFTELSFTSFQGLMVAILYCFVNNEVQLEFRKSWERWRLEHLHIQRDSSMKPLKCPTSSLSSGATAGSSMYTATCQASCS

CC[C@H](C)[C@H](NC(=O)[C@H](CC(C)C)NC(=O)[C@](C)(Cc1ccccc1)NC(=O)[C@H](CCCCNC(=O)COCCOCCNC(=O)COCCOCCNC(=O)CC[C@H](NC(=O)CCCCCCCCCCCCC(=O)O)C(=O)O)NC(=O)[C@@H](NC(=O)[C@](C)(Cc1ccccc1)NC(=O)[C@H](CCC(=O)O)NC(=O)C(C)(C)NC(=O)[C@H](CCC(N)=O)NC(=O)[C@H](C)NC(=O)[C@H](CCCCNC(=O)COCCOCCNC(=O)COCCOCCNC(=O)CC[C@H](NC(=O)CCCCCCCCCCCCC(=O)O)C(=O)O)NC(=O)[C@H](CCCN)NC(=O)[C@H](CC(=O)O)NC(=O)[C@H](CC(C)C)NC(=O)[C@](C)(CC(C)C)NC(=O)[C@@H](NC(=O)[C@H](CO)NC(=O)[C@@H](NC(=O)[C@H](CC(=O)O)NC(=O)[C@H](CO)NC(=O)[C@@H](NC(=O)[C@](C)(Cc1ccccc1F)NC(=O)[C@@H](NC(=O)CNC(=O)[C@H](CCC(=O)O)NC(=O)C(C)(C)NC(=O)[C@@H](N)Cc1ccc(O)cc1)[C@@H](C)O)[C@@H](C)O)C(C)C)[C@@H](C)CC)[C@@H](C)CC)C(=O)N[C@@H](CCC(=O)O)C(=O)NCC(=O)NCC(=O)N1CCC[C@H]1C(=O)N[C@@H](CO)C(=O)N[C@@H](CO)C(=O)NCC(=O)N[C@@H](C)C(=O)N1CCC[C@H]1C(=O)N1CCC[C@H]1C(=O)N1CCC[C@H]1C(=O)N[C@@H](CO)C(N)=O [Example 122]
EC50 (hGIPR; hGIPR EC50, nM (SEM, n), cAMP, incubated at 37° C., 0.1% bovine casein (no human serum albumin)): 0.064 nM
EC50 (hGCGR; [1]): > 9950 nM
Emax (hGLP-1R; [2]): 94.3%

CC[C@H](C)[C@H](NC(=O)[C@H](CC(C)C)NC(=O)[C@](C)(Cc1ccccc1)NC(=O)[C@H](CCCCNC(=O)COCCOCCNC(=O)COCCOCCNC(=O)CC[C@H](NC(=O)CCCCCCCCCCCCC(=O)O)C(=O)O)NC(=O)[C@@H](NC(=O)[C@](C)(Cc1ccccc1)NC(=O)[C@H](CCC(=O)O)NC(=O)C(C)(C)NC(=O)[C@H](CCC(N)=O)NC(=O)[C@H](C)NC(=O)[C@H](CCCCNC(=O)COCCOCCNC(=O)COCCOCCNC(=O)CC[C@H](NC(=O)CCCCCCCCCCCCC(=O)O)C(=O)O)NC(=O)[C@H](CCCN)NC(=O)[C@H](CC(=O)O)NC(=O)[C@H](CC(C)C)NC(=O)[C@](C)(CC(C)C)NC(=O)[C@@H](NC(=O)C(C)(C)NC(=O)[C@@H](NC(=O)[C@H](CC(=O)O)NC(=O)[C@H](CO)NC(=O)[C@@H](NC(=O)[C@](C)(Cc1ccccc1F)NC(=O)[C@@H](NC(=O)CNC(=O)[C@H](CCC(=O)O)NC(=O)C(C)(C)NC(=O)[C@@H](N)Cc1ccc(O)cc1)[C@@H](C)O)[C@@H](C)O)C(C)C)[C@@H](C)CC)[C@@H](C)CC)C(=O)N[C@@H](CCC(=O)O)C(=O)NCC(=O)NCC(=O)N1CCC[C@H]1C(=O)N[C@@H](CO)C(=O)N[C@@H](CO)C(=O)NCC(=O)N[C@@H](C)C(=O)N1CCC[C@H]1C(=O)N1CCC[C@H]1C(=O)N1CCC[C@H]1C(=O)N[C@@H](CO)C(N)=O [Example 123]
Emax (hGIPR; [3]): 94.9%
EC50 (hGCGR; [1]): > 9950 nM
Emax (hGLP-1R; [2]): 96.3%
EC50 (hGLP-1R; [4]): 0.508 nM

CC[C@H](C)[C@H](NC(=O)[C@H](CC(C)C)NC(=O)[C@](C)(Cc1ccc(O)cc1)NC(=O)[C@@H](CCC(=O)O)NC(=O)[C@@H](NC(=O)[C@H](Cc1ccccc1)NC(=O)[C@H](CCC(=O)O)NC(=O)C(C)(C)NC(=O)[C@H](CCC(N)=O)NC(=O)[C@H](C)NC(=O)[C@H](CCCCNC(=O)COCCOCCNC(=O)COCCOCCNC(=O)CC[C@H](NC(=O)CCCCCCCOc1ccc(C(=O)O)cc1)C(=O)O)NC(=O)[C@H](CCCN)NC(=O)[C@H](CC(=O)O)NC(=O)[C@H](CC(C)C)NC(=O)[C@](C)(CC(C)C)NC(=O)[C@@H](NC(=O)[C@H](CO)NC(=O)[C@H](Cc1ccncc1)NC(=O)[C@H](CC(=O)O)NC(=O)[C@H](CO)NC(=O)[C@@H](NC(=O)[C@](C)(Cc1ccccc1F)NC(=O)[C@@H](NC(=O)CNC(=O)[C@H](CCC(=O)O)NC(=O)C(C)(C)NC(=O)[C@@H](N)Cc1ccc(O)cc1)[C@@H](C)O)[C@@H](C)O)[C@@H](C)CC)[C@@H](C)CC)C(=O)N[C@@H](CCC(=O)O)C(=O)NCC(=O)NCC(=O)N[C@@H](CCCCNC(=O)COCCOCCNC(=O)COCCOCCNC(=O)CC[C@H](NC(=O)CCCCCCCOc1ccc(C(=O)O)cc1)C(=O)O)C(=O)N[C@@H](CO)C(=O)N[C@@H](CO)C(=O)NCC(=O)N[C@@H](C)C(=O)N1CCC[C@H]1C(=O)N1CCC[C@H]1C(=O)N1CCC[C@H]1C(=O)N[C@@H](CO)C(N)=O [Example 126]
Emax (hGIPR; [3]): 91.8%
EC50 (hGCGR; [1]): > 9950 nM
EC50 (hGLP-1R; [4]): 1.69 nM

CC[C@H](C)[C@H](NC(=O)[C@H](CC(C)C)NC(=O)[C@](C)(Cc1ccc(O)cc1)NC(=O)[C@@H](CCC(=O)O)NC(=O)[C@@H](NC(=O)[C@H](Cc1ccccc1)NC(=O)[C@H](CCC(=O)O)NC(=O)C(C)(C)NC(=O)[C@H](CCC(N)=O)NC(=O)[C@H](C)NC(=O)[C@H](CCCCNC(=O)COCCOCCNC(=O)COCCOCCNC(=O)CC[C@H](NC(=O)CCCc1ccc(C(C)(C)C)cc1)C(=O)O)NC(=O)[C@H](CCCN)NC(=O)[C@H](CC(=O)O)NC(=O)[C@H](CC(C)C)NC(=O)[C@](C)(CC(C)C)NC(=O)[C@@H](NC(=O)[C@H](CO)NC(=O)[C@H](CCCCNC(=O)COCCOCCNC(=O)COCCOCCNC(=O)CC[C@H](NC(=O)CCCc1ccc(C(C)(C)C)cc1)C(=O)O)NC(=O)[C@H](CC(=O)O)NC(=O)[C@H](CO)NC(=O)[C@@H](NC(=O)[C@](C)(Cc1ccccc1F)NC(=O)[C@@H](NC(=O)CNC(=O)[C@H](CCC(=O)O)NC(=O)C(C)(C)NC(=O)[C@@H](N)Cc1ccc(O)cc1)[C@@H](C)O)[C@@H](C)O)[C@@H](C)CC)[C@@H](C)CC)C(=O)N[C@@H](CCC(=O)O)C(=O)NCC(=O)NCC(=O)N1CCC[C@H]1C(=O)N[C@@H](CO)C(=O)N[C@@H](CO)C(=O)NCC(=O)N[C@@H](C)C(=O)N1CCC[C@H]1C(=O)N1CCC[C@H]1C(=O)N1CCC[C@H]1C(=O)N[C@@H](CO)C(N)=O [Example 130]
Emax (hGIPR; [5]): 94.7 ± 4.51%
EC50 (hGIPR; [6]): 0.0266 nM
EC50 (hGCGR; [7]): > 9950 nM
Emax (hGLP-1R; HEK293, percent of maximal response to GLP-1(7-36)NH2, 37° C., 0.1% bovine casein, arithmetic mean, read-out: hGLP-1R Emax, % ± SEM): 100 ± 1.69%

CC[C@H](C)[C@H](NC(=O)[C@H](CC(C)C)NC(=O)[C@](C)(Cc1ccc(O)cc1)NC(=O)[C@@H](CCC(=O)O)NC(=O)[C@@H](NC(=O)[C@H](Cc1ccccc1)NC(=O)[C@H](CCCCNC(=O)COCCOCCNC(=O)COCCOCCNC(=O)CC[C@H](NC(=O)CCCc1ccc(C(C)(C)C)cc1)C(=O)O)NC(=O)C(C)(C)NC(=O)[C@H](CCC(N)=O)NC(=O)[C@H](C)NC(=O)[C@H](CCCCNC(=O)COCCOCCNC(=O)COCCOCCNC(=O)CC[C@H](NC(=O)CCCc1ccc(C(C)(C)C)cc1)C(=O)O)NC(=O)[C@H](CCCN)NC(=O)[C@H](CC(=O)O)NC(=O)[C@H](CC(C)C)NC(=O)[C@](C)(CC(C)C)NC(=O)[C@@H](NC(=O)[C@H](CO)NC(=O)[C@H](Cc1ccncc1)NC(=O)[C@H](CC(=O)O)NC(=O)[C@H](CO)NC(=O)[C@@H](NC(=O)[C@](C)(Cc1ccccc1F)NC(=O)[C@@H](NC(=O)CNC(=O)[C@H](CCC(=O)O)NC(=O)C(C)(C)NC(=O)[C@@H](N)Cc1ccc(O)cc1)[C@@H](C)O)[C@@H](C)O)[C@@H](C)CC)[C@@H](C)CC)C(=O)N[C@@H](CCC(=O)O)C(=O)NCC(=O)NCC(=O)N1CCC[C@H]1C(=O)N[C@@H](CO)C(=O)N[C@@H](CO)C(=O)NCC(=O)N[C@@H](C)C(=O)N1CCC[C@H]1C(=O)N1CCC[C@H]1C(=O)N1CCC[C@H]1C(=O)N[C@@H](CO)C(N)=O [Example 131]
EC50 (hGIPR; 0.1% bovine casein and 1.0% human serum albumin, 37° C., read-out: hGIPR EC50, nM (SEM, n)): 0.0581 nM
Emax (hGIPR; HEK293, 0.1% bovine casein and 1.0% human serum albumin, 37° C., percent of maximal response to GIP(1-42)NH2, read-out: hGIPR Emax, % ± SEM): 90.4 ± 1.62%
Emax (hGIPR; [5]): 96.4 ± 1.95%
EC50 (hGIPR; [6]): 0.0156 nM
EC50 (hGCGR; 0.1% bovine casein and 1.0% human serum albumin, 37° C., read-out: hGCGR EC50, nM (SEM, n)): > 9950 nM
EC50 (hGCGR; [7]): > 9950 nM
EC50 (hGLP-1R; 0.1% bovine casein and 1.0% human serum albumin, 37° C., read-out: hGLP-1R EC50, nM (SEM, n)): 1.04 nM
Emax (hGLP-1R; HEK293, 0.1% bovine casein and 1.0% human serum albumin, 37° C., percent of maximal response to GLP-1(7-36)NH2, read-out: hGLP-1R Emax, % ± SEM): 112 ± 1.76%
EC50 (hGLP-1R; cAMP, incubated at 37° C., 0.1% bovine casein (no human serum albumin), read-out: hGLP-1R EC50, nM (SEM, n)): 0.19 nM
